According to US9226505B2, “4-substituted 1-phenylpyrazole-3-carboxylic acid derivatives as agents against abiotic plant stress” (BAYER INTELLECTUAL PROPERTY GMBH, priority 2011, dated 2016):

System: BRSNS
Assay: Drought stress test on crop plants, spray application, visual damage rating (BRSNS)
Type: in vivo, Brassica napus
Details: dosage 250 g/ha, mean of three results
Procedure: Seeds of monocotyledonous and dicotyledonous crop plants were laid out in sandy loam in wood-fiber pots, covered with soil and cultivated in a greenhouse under good growth conditions. The test plants were treated at the early leaf stage (BBCH10-BBCH13). To ensure uniform water supply before commencement of stress, the potted plants were supplied with the maximum amount of water immediately beforehand by dam irrigation and, after application, transferred into plastic inserts in order to prevent subsequent, excessively rapid drying. The compounds according to the invention, formulated in the form of wettable powders (WP), wettable granules (WG), suspension concentrates (SC) or emulsion concentrates (EC), were sprayed onto the green parts of the plants as an aqueous suspension at an equivalent water application rate of 600 I/ha with addition of 0.2% wetting agent (agrotin). Substance application is followed immediately by stress treatment of the plants (cold or drought stress). […]
After the recovery phase had ended, the intensities of damage were rated visually in comparison to untreated, unstressed controls of the same age (in the case of drought stress) or the same growth stage (in the case of cold stress). The intensity of damage was first recorded as a percentage (100%=plants have died, 0%=like control plants). […]

SMILES: CCCn1cc(-c2cn(-c3ccc(F)cc3)nc2C(=O)OCC)cn1 [1-878, Ethyl 1-(4-fluorophenyl)-1-propyl-1H, 1′H-4,4′-bipyrazole-3-carboxylate]
- EF (BRSNS), efficacy = percentage reduction in the intensity of damage: >5%
